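In this assay, cells in 96-well plates receive the compound at five concentrations for 48 hours. Endpoints are linearly interpolated between the surrounding concentrations. At the TGI there is no net growth.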
What was measured:
Assay in all cases: NCI anticancer screen, dose series, 48 h
CCRF-CEM leukemia = test system: CCRF-CEM leukemia
HCT-116 colon = test system: HCT-116 colon
SNB-75 CNS = test system: SNB-75 CNS
MDA-N = test system: MDA-N
MOLT-4 leukemia = test system: MOLT-4 leukemia
HOP-62 NSCLC = test system: HOP-62 NSCLC
BT-549 breast = test system: BT-549 breast
HT29 colon = test system: HT29 colon
ACHN renal = test system: ACHN renal
UO-31 renal = test system: UO-31 renal
MDA-MB-435 = test system: MDA-MB-435
HCT-15 colon = test system: HCT-15 colon
RXF 393 renal = test system: RXF 393 renal
OVCAR-4 ovarian = test system: OVCAR-4 ovarian
T-47D breast = test system: T-47D breast
SF-295 CNS = test system: SF-295 CNS
COLO 205 colon = test system: COLO 205 colon
IGROV1 ovarian = test system: IGROV1 ovarian
M14 melanoma = test system: M14 melanoma
SW-620 colon = test system: SW-620 colon

| SMILES | TGI (CCRF-CEM leukemia) [µM] | TGI (HCT-116 colon) [µM] | TGI (SNB-75 CNS) [µM] | TGI (MDA-N) [µM] | TGI (MOLT-4 leukemia) [µM] | TGI (HOP-62 NSCLC) [µM] | TGI (BT-549 breast) [µM] | TGI (HT29 colon) [µM] | TGI (ACHN renal) [µM] | TGI (UO-31 renal) [µM] | TGI (MDA-MB-435) [µM] | TGI (HCT-15 colon) [µM] | TGI (RXF 393 renal) [µM] | TGI (OVCAR-4 ovarian) [µM] | TGI (T-47D breast) [µM] | TGI (SF-295 CNS) [µM] | TGI (COLO 205 colon) [µM] | TGI (IGROV1 ovarian) [µM] | TGI (M14 melanoma) [µM] | TGI (SW-620 colon) [µM] |
| --- | --- | --- | --- | --- | --- | --- | --- | --- | --- | --- | --- | --- | --- | --- | --- | --- | --- | --- | --- | --- |
| CSc1ncc2c(n1)sc1c(=O)n(-c3ccccc3)cnc12 | > 100 | > 100 | > 100 | > 100 | > 100 | > 100 | > 100 | > 100 | > 100 | > 100 | > 100 | > 100 | > 100 | > 100 | > 100 | > 100 | > 100 | > 100 | > 100 | > 100 |
| O=C(CSc1nc2ccc(I)cc2c(=O)n1Cc1ccccc1)NNC(=O)c1ccccc1 | > 100 | > 100 | 10.3 | > 100 | 23.5 | 22.7 | 21.3 | > 100 | 75.4 | 2.73 | > 100 | > 100 | 17.5 | 57.4 | 30.5 | 30.7 | > 100 | 24.7 | > 100 | > 100 |
| COc1ccc2[nH]c3c(C)c4ccnc(NCCCN(C)CCCNc5ccc6ncn7c8ccccc8c(=O)c5c67)c4c(C)c3c2c1 | 5.62 | 3.01 | 7.38 | 4.29 | 3.13 | 0.784 | 3.99 | 1.03 | 0.918 | 4.21 | 4.45 | 3.45 | 0.623 | 6.94 | 9.46 | 1.85 | 4.36 | 1.32 | 2.48 | 25 |
| O=C(CCCl)NNC1=NCCCN1 | > 100 | > 100 | > 100 | > 100 | > 100 | > 100 | > 100 | > 100 | > 100 | > 100 | > 100 | > 100 | > 100 | > 100 | > 100 | > 100 | > 100 | > 100 | > 100 | > 100 |
| COc1ccc2nc3ccc(OC)cc3c(SCc3ccccc3)c2c1 | > 94.1 | > 100 | > 100 | > 26.3 | > 83.2 | > 100 | > 100 | > 100 | > 100 | > 35.7 | > 100 | > 100 | > 100 | > 100 | > 100 | > 100 | > 100 | > 100 | > 50 | > 100 |
| COc1ccc(/C=C2\CCC/C(=C\c3ccc(O)c(CN4CCCCC4)c3)C2=O)cc1 | > 100 | 13.1 | > 71.8 | 37.2 | 40.7 | > 56.3 | 37.7 | 19.9 | > 82.7 | 39.9 | 39.6 | 36 | 41 | > 79.5 | > 73.8 | 36.4 | 46.9 | 41.5 | 35.3 | 28.8 |
| CC(C)Cc1cc2c(cc1O)CCC1C2CC[C@@]2(C)C1CC[C@@H]2O (stereo not given in full) | 27.1 | 16.2 | 33.3 | 19.7 | 17.2 | 33.1 | 14.2 | 21.6 | 20 | 13.4 | 27.8 | 21.7 | 16.3 | 24.3 | 23.4 | 20.2 | 28.9 | 33.1 | 19.3 | 25.4 |
| C[C@@H](NC(=O)c1ccc(CNC(=O)/C=C/c2cccc(Oc3ccccc3)c2)cc1)c1ccccc1 | > 100 | > 100 | 20.1 | > 100 | > 100 | > 61.7 | > 100 | > 100 | 36 | 27.5 | > 100 | > 100 | 12.2 | > 100 | > 100 | > 100 | > 100 | > 100 | > 100 | > 100 |
| CN(c1cn(C2CC[C@@H](CO)O2)c(=O)[nH]c1=O)C1CCCCC1 (stereo not given in full) | > 100 | > 100 | > 100 | > 100 | > 100 | > 100 | > 100 | > 100 | > 100 | > 100 | > 100 | > 100 | > 100 | > 100 | > 100 | > 100 | > 100 | > 100 | > 100 | > 100 |
| c1ccc2c(c1)CCc1[nH]c3c(c1-2)-c1ccccc1CC3 | > 100 | > 100 | > 100 | > 100 | > 100 | 58.5 | > 100 | > 100 | > 100 | > 100 | > 100 | > 100 | > 100 | > 100 | > 100 | > 100 | > 100 | > 100 | > 100 | > 100 |

From PubChem BioAssay (NCI)
